Results as given in ChEMBL document CHEMBL1201862, “PubChem BioAssay data set” (2004).
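A five-concentration, 48-hour dose response in 96-well plates underlies each endpoint, interpolated linearly between surrounding concentrations. Abbreviation: GI50, concentration required for 50% inhibition of growth.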 Calls of active or inactive are those of the source. No stated cut-off is given here; in the data, active = GI50 up to about 1.1 µM and inactive = higher.

What was measured:
Test in all cases: inhibition of tumour cell growth, NCI panel, 48 h
[1] = system: OVCAR-8
[2] = system: DU-145
[3] = system: MDA-MB-435
[4] = system: HOP-92
[5] = system: ACHN
[6] = system: SW-620
[7] = system: TK-10
[8] = system: SNB-19
[9] = system: NCI-H460
[10] = system: IGROV-1
[11] = system: UACC-62
[12] = system: UACC-257
[13] = system: MCF7
[14] = system: Malme-3M
[15] = system: M14
[16] = system: Hs-578T
[17] = system: 786-0
[18] = system: SN12C
[19] = system: HL-60
[20] = system: NCI-H23
[21] = system: SF-295
[22] = system: MDA-MB-231
[23] = system: MDA-N
[24] = system: NCI-H226
[25] = system: SNB-75
[26] = system: NCI/ADR-RES
[27] = system: T47D
[28] = system: EKVX
[29] = system: HCT-116
[30] = system: SR
[31] = system: OVCAR-4
[32] = system: HCT-15
[33] = system: SF-268
[34] = system: HCC 2998
[35] = system: CCRF-CEM
[36] = system: RXF 393
[37] = system: CAKI-1
[38] = system: NCI-H522
[39] = system: OVCAR-3
[40] = system: COLO 205
[41] = system: A549
[42] = system: K562
[43] = system: LOX IMVI
[44] = system: RPMI-8226
[45] = system: SF-539
[46] = system: U-251
[47] = system: SK-MEL-28
[48] = system: PC-3
[49] = system: OVCAR-5
[50] = system: SK-MEL-5
[51] = system: A498
[52] = system: SK-OV-3
[53] = system: HOP-62
[54] = system: HT-29
[55] = system: KM12
[56] = system: MOLT-4
[57] = system: UO-31
[58] = system: SK-MEL-2
[59] = system: BT-549

`COc1ccc(-c2coc3cc(OC)cc(O)c3c2=O)cc1` [4',7-DIMETHOXY-5-HYDROXYGENISTEIN] was tested, and the GI50 [1] was > 100 µM (inactive), the GI50 [2] was > 100 µM (inactive) and the GI50 [3] was > 100 µM (inactive). For the same compound, the GI50 [4] was 7.41 µM (inactive), the GI50 [5] was 34.4 µM (inactive) and the GI50 [6] was > 100 µM (inactive). For the same compound, the GI50 [7] was 29.6 µM (inactive), the GI50 [8] was 31.4 µM (inactive) and the GI50 [9] was > 100 µM (inactive). For the same compound, the GI50 [10] was > 100 µM (inactive), the GI50 [11] was > 100 µM (inactive) and the GI50 [12] was > 100 µM (inactive). For the same compound, the GI50 [13] was > 100 µM (inactive), the GI50 [14] was > 100 µM (inactive) and the GI50 [15] was 52.7 µM (inactive). The GI50 [16] was 31.1 µM (inactive), the GI50 [17] was 25.8 µM (inactive) and the GI50 [18] was > 100 µM (inactive). For the same compound, the GI50 [19] was > 100 µM (inactive), the GI50 [20] was 30.8 µM (inactive) and the GI50 [21] was > 100 µM (inactive). The GI50 [22] was 31 µM (inactive), the GI50 [23] was > 100 µM (inactive) and the GI50 [24] was > 100 µM (inactive). For the same compound, the GI50 [25] was > 100 µM (inactive), the GI50 [26] was > 100 µM (inactive) and the GI50 [27] was > 100 µM (inactive). For the same compound, the GI50 [28] was > 100 µM (inactive), the GI50 [29] was > 100 µM (inactive) and the GI50 [30] was > 100 µM (inactive). The GI50 [31] was > 100 µM (inactive), the GI50 [32] was > 100 µM and the GI50 [33] was 51.3 µM (inactive). The GI50 [34] was > 100 µM (inactive), the GI50 [35] was > 100 µM (inactive) and the GI50 [36] was 27.9 µM (inactive). The GI50 [37] was > 100 µM (inactive), the GI50 [38] was > 100 µM (inactive) and the GI50 [39] was > 100 µM (inactive). For the same compound, the GI50 [40] was > 100 µM (inactive), the GI50 [41] was > 100 µM (inactive) and the GI50 [42] was > 100 µM (inactive). The GI50 [43] was > 100 µM (inactive), the GI50 [44] was > 100 µM (inactive) and the GI50 [45] was 78.3 µM (inactive). For the same compound, the GI50 [46] was 43.3 µM (inactive), the GI50 [47] was > 100 µM (inactive) and the GI50 [48] was > 100 µM (inactive). The GI50 [49] was > 100 µM (inactive), the GI50 [50] was > 100 µM (inactive) and the GI50 [51] was 24.8 µM (inactive). For the same compound, the GI50 [52] was > 100 µM (inactive), the GI50 [53] was 32.4 µM (inactive) and the GI50 [54] was > 100 µM (inactive). For the same compound, the GI50 [55] was > 100 µM (inactive).

With `CN(C)CCCNc1ccc2c(=O)n(CCN(C)C)c(=O)n3c4ccccc4c(=O)c1c23` the GI50 [1] was 0.22 µM (active), the GI50 [2] was 0.124 µM (active) and the GI50 [3] was 0.259 µM (active). For the same compound, the GI50 [4] was 0.664 µM (active), the GI50 [5] was 0.0752 µM (active) and the GI50 [56] was 0.0268 µM (active). The GI50 [6] was 0.0637 µM (active), the GI50 [7] was 0.518 µM (active) and the GI50 [8] was 0.132 µM (active). For the same compound, the GI50 [9] was 0.0335 µM (active), the GI50 [10] was 0.148 µM (active) and the GI50 [11] was 0.342 µM (active). For the same compound, the GI50 [12] was 0.396 µM (active), the GI50 [13] was 0.0885 µM (active) and the GI50 [14] was 0.286 µM (active). The GI50 [15] was 0.394 µM (active), the GI50 [16] was 1.49 µM (inactive) and the GI50 [17] was 0.0419 µM (active). The GI50 [18] was 0.103 µM (active), the GI50 [19] was 0.15 µM (active) and the GI50 [20] was 0.236 µM (active). The GI50 [21] was 0.245 µM (active), the GI50 [22] was 0.164 µM (active) and the GI50 [23] was 0.133 µM (active). The GI50 [24] was 0.368 µM (active), the GI50 [25] was 1.1 µM (active) and the GI50 [57] was 0.355 µM (active). For the same compound, the GI50 [26] was 0.396 µM (active), the GI50 [27] was 1.03 µM (active) and the GI50 [28] was 0.272 µM (active). For the same compound, the GI50 [58] was 0.798 µM (active), the GI50 [29] was 0.0752 µM (active) and the GI50 [30] was 0.022 µM (active). The GI50 [31] was 0.224 µM (active), the GI50 [32] was 0.0562 µM and the GI50 [33] was 0.603 µM (active). The GI50 [34] was 0.112 µM (active), the GI50 [35] was 0.132 µM (active) and the GI50 [36] was 0.783 µM (active). The GI50 [37] was 0.211 µM (active), the GI50 [38] was 0.101 µM (active) and the GI50 [39] was 0.34 µM (active). The GI50 [40] was 0.127 µM (active), the GI50 [41] was 0.155 µM (active) and the GI50 [42] was 0.0512 µM (active). The GI50 [43] was 0.144 µM (active), the GI50 [44] was 0.129 µM (active) and the GI50 [45] was 0.486 µM (active). The GI50 [46] was 0.234 µM (active), the GI50 [47] was 0.628 µM (active) and the GI50 [48] was 0.258 µM (active). The GI50 [49] was 0.356 µM (active), the GI50 [50] was 0.35 µM (active) and the GI50 [51] was 0.309 µM (active). The GI50 [52] was 0.582 µM (active), the GI50 [53] was 0.351 µM (active) and the GI50 [54] was 0.0647 µM (active). For the same compound, the GI50 [55] was 0.159 µM (active).

In the case of `O=c1[nH]nc(NCCc2ccccc2)c2nnn(Cc3ccccc3)c12`, the GI50 [1] is reported as > 100 µM (inactive), the GI50 [2] is reported as > 100 µM (inactive) and the GI50 [3] is reported as > 100 µM (inactive). The GI50 [5] was > 100 µM (inactive), the GI50 [56] was > 100 µM (inactive) and the GI50 [7] was > 100 µM (inactive). For the same compound, the GI50 [8] was > 100 µM (inactive), the GI50 [59] was > 100 µM (inactive) and the GI50 [9] was > 100 µM (inactive). For the same compound, the GI50 [12] was > 100 µM (inactive), the GI50 [13] was > 100 µM (inactive) and the GI50 [14] was > 100 µM (inactive). The GI50 [15] was > 100 µM (inactive), the GI50 [17] was > 100 µM (inactive) and the GI50 [18] was > 100 µM (inactive). The GI50 [19] was > 100 µM (inactive), the GI50 [20] was > 100 µM (inactive) and the GI50 [21] was > 100 µM (inactive). The GI50 [22] was > 100 µM (inactive), the GI50 [25] was > 100 µM (inactive) and the GI50 [57] was > 100 µM (inactive). The GI50 [26] was > 100 µM (inactive), the GI50 [28] was > 100 µM (inactive) and the GI50 [58] was > 100 µM (inactive). The GI50 [29] was > 100 µM (inactive), the GI50 [30] was > 100 µM (inactive) and the GI50 [31] was > 100 µM (inactive). For the same compound, the GI50 [32] was > 100 µM, the GI50 [33] was > 100 µM (inactive) and the GI50 [34] was > 100 µM (inactive). The GI50 [35] was > 100 µM (inactive), the GI50 [36] was > 100 µM (inactive) and the GI50 [37] was > 100 µM (inactive). The GI50 [39] was > 100 µM (inactive), the GI50 [40] was > 100 µM (inactive) and the GI50 [41] was > 100 µM (inactive). The GI50 [42] was > 100 µM (inactive), the GI50 [43] was > 100 µM (inactive) and the GI50 [44] was > 100 µM (inactive). The GI50 [46] was > 100 µM (inactive), the GI50 [47] was > 100 µM (inactive) and the GI50 [48] was > 100 µM (inactive). The GI50 [49] was > 100 µM (inactive), the GI50 [50] was > 100 µM (inactive) and the GI50 [53] was > 100 µM (inactive). For the same compound, the GI50 [54] was > 100 µM (inactive) and the GI50 [55] was > 100 µM (inactive).
